Here are results for 11 compounds from patent publication US4732989A, “Substituted alkyl imidazole derivatives” (G. D. Searle & Co., priority 1986, dated 1988).

≈ marks a conversion by molar mass, not a printed value. Counter-ions that a name gives are not always drawn.

One experiment concerns B. Fragilis WS-1. Briefly: MIC/MBC anti-anaerobic screen, strain E. In kind it is cell-based. The note with it: Bacteroides fragilis, 48 h; for MIC: 37° C., anaerobic, read-out: Minimum Inhibitory Concentration (MIC). The method, then: (§1) The screening panel utilized in this Example consisted of 5 strains of Bacteroides fragilis. All assays were carried out in 96 well microtitre plates. If an isolate was obtained from either a culture collection or clinical source, the isolate was immediately inoculated into Wilkins-Chalgren broth (Oxoid) and incubated at 37° C. in an anaerobic chamber in an atmosphere of 85% nitrogen, 10% carbon dioxide, and 5% hydrogen for 48 hours. At the end of this time, the viable count was about 10^12 organisms/ml broth. A 1 ml aliquot of each culture was placed in an ampoule and quick frozen in an acetone-dry-ice mixture and stored in liquid nitrogen. When an inoculum was utilized in an assay, one of the ampoules was thawed and diluted with fresh broth to yield a suspension having a count of 5×10^5 organisms/ml. 100 ul of the suspension was inoculated into each well of the microtitre plate. 2 mg of the test compound was dissolved on 0.2 ml of a suitable solvent such as dimethylsulphoxide, polyethylene glycol 200 or methanol. […] After addition of the test solution, the final inoculum level is 10^5 cells/ml. The plates were incubated for 48 hours at 37° C. in the anaerobic chamber. The Minimum Inhibitory Concentration (MIC) was read visually. The MIC is defined as the lowest concentration at which there is no detectable growth. The Minimum Bactericidal Concentration (MBC) was determined by taking a 50 ul aliquot from each well and placing it in fresh medium.

The next experiment relates to B. Fragilis ATCC 11295. Briefly: MIC/MBC anti-anaerobic screen, strain D. The class given is cell-based. The note with it: Bacteroides fragilis, ATCC11295, 48 h, 37° C., read-out: Minimum Inhibitory Concentration (MIC). The method, then:
as §1

For the next experiment, the system named is B. Fragilis NCTC 9344. Briefly: MIC/MBC anti-anaerobic screen, strain C. In kind it is cell-based. The note with it: Bacteroides fragilis, NCTC9344, 48 h, 37° C., read-out: Minimum Inhibitory Concentration (MIC). The method, then: as §1
In another experiment the test system is B. Fragilis NCTC 10581. Briefly: MIC/MBC anti-anaerobic screen, strain A. The class given is cell-based, Bacteroides fragilis. The note with it: 37° C.; for MIC: Bacteroides fragilis, NCTC10581, 48 h, read-out: Minimum Inhibitory Concentration (MIC). The method, then: as §1
Another experiment deals with B. Fragilis NCTC 9343. Briefly: MIC/MBC anti-anaerobic screen, strain B. The class given is cell-based. The note with it: Bacteroides fragilis, NCTC9343, 48 h, 37° C., read-out: Minimum Inhibitory Concentration (MIC). The method, then:
as §1

For the compound `Cc1nccn1CC(C1=NCCN1c1ccc(Cl)cc1Cl)c1ccccc1` (centres unmarked) [Example 21, 1-(2,4-Dichlorophenyl)-4,5-dihydro-2-[2-(2-methylimidazol-1-yl)-1-phenylethyl]imidazole dihydrochloride], the values for the MIC with B. Fragilis WS-1, with B. Fragilis ATCC 11295 and in the experiment on B. Fragilis NCTC 9344 were 0.8 µg/mL, 3.1 µg/mL and 0.8 µg/mL, respectively.
In the case of `CC1=NCCN1CC(C1=NCCN1c1ccc(Cl)cc1Cl)c1ccccc1` (centres unmarked) [Example 23, 1-(2,4-Dichlorophenyl)-4,5-dihydro-2-[2-(4,5-dihydro-2-methylimidazol-1-yl)-1-phenylethyl]imidazole dihydrochloride], in the experiment on B. Fragilis WS-1, the MIC came out at 0.8 µg/mL.
On to `Cc1ncc([N+](=O)[O-])n1CCO` [Metronidazole, reference compound], for which the “Minimum Inhibitory Concentration (MIC)” value in the experiment on B. Fragilis NCTC 10581 (48 hours) amounted to 0.8 µg/mL.
`Clc1ccc(CN2CCN=C2C(Cn2cccn2)c2ccccc2)c(Cl)c1` (centres unmarked) [Example 16, 1-(2,4-Dichlorophenylmethyl)-4,5-dihydro-2-[1-phenyl-2-(pyrazol-1-yl)ethyl]imidazole dihydrochloride]: the MIC with B. Fragilis NCTC 10581 was found to be 2.5 µg/mL; with B. Fragilis NCTC 9344 it was 3.1 µg/mL.
As for `CSc1nccn1CC(C1=NCCN1c1ccc(Cl)cc1Cl)c1ccccc1` (centres unmarked) [Example 22, 1-(2,4-Dichlorophenyl)-4,5-dihydro-2-[1-phenyl-2-(2-thiomethylimidazol-1-yl)ethyl]imidazole dihydrochloride], the MIC in the experiment on B. Fragilis WS-1, in the experiment with B. Fragilis ATCC 11295 and in the experiment on B. Fragilis NCTC 9344 was 3.1 µg/mL each time.
On to `Clc1ccccc1N1CCN=C1C(Cn1ccnc1)c1ccccc1` (centres unmarked) [Example 1, 1-(2-Chlorophenyl)-4,5-dihydro-2[2-(imidazol-1-yl)-1-phenylethyl)imidazole], for which the MIC with B. Fragilis NCTC 10581 was 3.1 µg/mL (≈ 8.84 µM).
In the case of `CCCCCCCCN1CCN=C1C(Cn1ccnc1)c1ccccc1` (centres unmarked) [Example 19, 4,5-Dihydro-2-[2-(imidazol-1-yl)-1-phenylethyl]-1-n-octylimidazole dihydrochloride], the MIC in the experiment on B. Fragilis NCTC 9343 turned out to be 3.1 µg/mL.
As for `Clc1ccc(CN2CCN=C2C(Cn2ccnc2)c2ccccc2)c(Cl)c1` (centres unmarked) [Example 15, 1-(2,4-Dichlorophenylmethyl)-4,5-dihydro-2-[2-(imidazol-1-yl)-1-phenylethyl]imidazole], the MIC in the experiment on B. Fragilis NCTC 10581, with B. Fragilis ATCC 11295, in the experiment with B. Fragilis NCTC 9343 and with B. Fragilis NCTC 9344 was 3.1 µg/mL (≈ 7.76 µM) in each case.
In the case of `Clc1ccc(N2CCN=C2C(Cn2ccnc2)c2ccccc2)c(Cl)c1` (centres unmarked) [Example 3, 1-(2,4-Dichlorophenyl)-4,5-dihydro-2-[2-(imidazol-1-yl)-1-phenylethyl]imidazole hydrochloride], the MIC in the experiment on B. Fragilis NCTC 10581, in the experiment on B. Fragilis ATCC 11295 and with B. Fragilis NCTC 9344 was 0.8 µg/mL each time. Moreover, the MBC with B. Fragilis WS-1 (99.9% reduction in viable count, read-out: Minimum Bactericidal Concentration (MBC)) worked out at 3.1 µg/mL.
Turning to `CCCCCCCCCCN1CCN=C1C(Cn1ccnc1)c1ccccc1.Cl.Cl` (centres unmarked) [Example 26, 1-n-Decyl-4,5-dihydro-2-[2-(imidazol-1-yl)-1-phenylethyl]imidazole dihydrochloride], the MIC in the experiment with B. Fragilis WS-1, in the experiment on B. Fragilis ATCC 11295 and in the experiment with B. Fragilis NCTC 9344 was 3.1 µg/mL in each case.
Consider `Brc1ccc(N2CCN=C2C(Cn2ccnc2)c2ccccc2)c(Br)c1` (centres unmarked) [Example 2, 1-(2,4-Dibromophenyl)-4,5-dihydro-2-[2-(imidazol-1-yl)-1-phenylethyl]imidazole dihydrochloride], for which the MIC with B. Fragilis NCTC 10581 worked out at 0.8 µg/mL; with B. Fragilis WS-1, 0.8 µg/mL; with B. Fragilis NCTC 9343 it was 3.1 µg/mL.
